# From patent publication US20240374631A1, “A COMPOSITION FOR IMPROVING GUT MICROBIOTA, BEHAVIOURAL PATTERN, ALPHA-SYNUCLEIN LEVELS, SLEEP PATTERN AND/OR SERUM MELATONIN” (GN Corporation Co Ltd, priority 2021, published 2024)
# Tested on: gut microbiota
# Experiment: Gut microbiome analysis (16S rRNA sequencing of fecal samples) in STAM model of NASH
# Type: in vivo, C57BL/6J mice
# Description: The study is reported in accordance with Animal Research: Reporting of In Vivo Experiments (ARRIVE) guidelines. C57BL/6J mice were obtained from Japan SLC, Inc. (Japan). All animals used in this study were cared for under the following guidelines: Act on Welfare and Management of Animals (Ministry of the Environment, Japan, Act No. 105 of Oct. 1, 1973), standards relating to the care and management of laboratory animals and relief of pain (Notice No. 88 of the Ministry of the Environment, Japan, Apr. 28, 2006) and the guidelines for proper conduct of animal experiments (Science Council of Japan, Jun. 1, 2006). Protocol approvals were obtained from SMC Laboratories, Japan's IACUC (Study reference no: […] Mice were maintained in a specific pathogen-free (SPF) facility under controlled conditions of temperature (23±3° C.), humidity (50±20%), lighting (12-hour artificial light and dark cycles; light from 8:00 to 20:00) and air exchange. The STAM model of NASH was induced as previously described [D10]. Mice were given a single subcutaneous injection of 200 μg streptozotocin (STZ, Sigma-Aldrich, USA) solution 2 days after birth and fed with a high-fat diet (HFD, 57 kcal % fat, Cat #HFD32, CLEA Japan, Inc., Japan) from 4-9 weeks of age. All mice develop liver steatosis and diabetes and at […] mice had established steatohepatitis, histologically. Studygroups: There were five study groups, described below. Eight mice were included in each study group. Eight NASH mice were orally administered vehicle supplemented with AFO-202 Beta Glucan at a dose of 1 mg/kg in a volume of 5 mL/kg once daily from 6 to 9 weeks of age. Eight NASH mice were orally administered vehicle supplemented with Telmisartan at a dose of 10 mg/kg once daily from 6 to 9 weeks of age. Frequency: Fecal samples were collected at the 6 weeks of age (before administration) and 9 weeks of age (before sacrifice). Procedure: At 6 weeks of age, fecal samples were collected from each mouse by clean catch method. […] A sterile petri dish was placed on the bench. Gently massage the abdomen, position the bottom of mouse over a fresh petri dish, and collect 1-2 fecal pellets. At sacrifice, fecal samples were aseptically collected from cecum. The tubes with feces were placed on ice immediately. These tubes were snap frozen in liquid nitrogen and stored at -80° C. for shipping. In this analysis, the 16S rRNA sequence data acquired by the next-generation sequencer from the fecal […] was used to perform community analysis using the QIIME2 program for microbial community analysis. The raw read data in FASTQ format output from the next-generation sequencer was trimmed to remove adapter sequences and low QV regions that may be included in the data. Cutadapt was used to remove adapter sequences from DNA sequencing reads. Trimmomatic was used as read trimming tool for Illumina NGS data. The adapter sequence was trimmed using the adapter trimming program “cutadapt” if the Trimming of the region at the end of the read sequence overlapped the corresponding sequence by at least one base (mismatch tolerance: 20%). When reads containing N were present in at least one of Read1 and Read2, both Read1 and Read2 were removed. Trimming of low QV regions was performed on the read data after processing using the QV trimming program “Trimmomatic” under the following conditions. The window of 20 bases is slid from the 5' side, and the area where the average QV is less than 20 is trimmed. After trimming, only the reads with more than 50 bases remaining in both Read1 and Read2 were taken as output. The microbial community analysis based on 16S rRNA sequence was performed on the sequence data trimmed in the previous section using the microbial community analysis program “QIIME2”. The annotation program “sklearn” included in QIIME2 is used to annotate the ASV (OTU) sequences. […]
smiles,measurement,setting,value
CCCc1nc2c(C)cc(-c3nc4ccccc4n3C)cc2n1Cc1ccc(-c2ccccc2C(=O)O)cc1 [Telmisartan],"Abundance: Family Methanobacteriaceae, Genus Methanobrevibacter, Species —","pre (baseline), table row r429",0
same,"Abundance: Family Lachnospiraceae, Genus Other, Species Other","pre (baseline), table row r431",12
same,"Abundance: Family Lachnospiraceae, Genus Dorea, Species —","pre (baseline), table row r432",0
same,"Abundance: Family Lachnospiraceae, Genus Dorea, Species —","pre (baseline), table row r433",7
same,"Abundance: Family Lachnospiraceae, Genus —, Species —","pre (baseline), table row r434",11
same,"Abundance: Family Erysipelotrichaceae, Genus —, Species —","pre (baseline), table row r435",0
same,"Abundance: Family Other, Genus Other, Species Other","pre (baseline), table row r437",0
same,"Abundance: Family Ruminococcaceae, Genus Ruminococcus, Species —","pre (baseline), table row r438",0
same,"Abundance: Family Lachnospiraceae, Genus Other, Species Other","pre (baseline), table row r439",0
same,"Abundance: Family Erysipelotrichaceae, Genus Clostridum, Species cocleatum","pre (baseline), table row r440",0
same,"Abundance: Family Clostridiaceae, Genus —, Species —","pre (baseline), table row r441",10
same,"Abundance: Family S24-7, Genus —, Species —","pre (baseline), table row r442",0
same,"Abundance: Family Ruminococcaceae, Genus Oscillospira, Species —","pre (baseline), table row r443",0
same,"Abundance: Family Erysipelotrichaceae, Genus —, Species —","pre (baseline), table row r446",0
same,"Abundance: Family Streptococcaceae, Genus —, Species —","pre (baseline), table row r447",0
same,"Abundance: Family Erysipelotrichaceae, Genus —, Species —","pre (baseline), table row r448",0
same,"Abundance: Family Turicibacteraceae, Genus Turicibacter, Species —","pre (baseline), table row r449",0
same,"Abundance: Family S24-7, Genus —, Species —","pre (baseline), table row r450",0
same,"Abundance: Family Ruminococcaceae, Genus Oscillospira, Species —","pre (baseline), table row r451",0
same,"Abundance: Family Lachnospiraceae, Genus —, Species —","pre (baseline), table row r452",0
same,"Abundance: Family Erysipelotrichaceae, Genus —, Species —","pre (baseline), table row r454",0
same,"Abundance: Family Ruminococcaceae, Genus Ruminococcus, Species —","pre (baseline), table row r455",0
same,"Abundance: Family Moraxellaceae, Genus Psychrobacter, Species Other","pre (baseline), table row r456",0
same,"Abundance: Family Paenibacillaceae, Genus Other, Species Other","pre (baseline), table row r457",0
same,"Abundance: Family Lachnospiraceae, Genus Coprococcus, Species —","pre (baseline), table row r458",0
same,"Abundance: Family Bacillaceae, Genus Bacillus, Species —","pre (baseline), table row r459",0
same,"Abundance: Family Enterococcaceae, Genus Vagococcus, Species —","pre (baseline), table row r460",0
same,"Abundance: Family Lachnospiraceae, Genus —, Species —","pre (baseline), table row r462",0
same,"Abundance: Family Ruminococcaceae, Genus Oscillospira, Species —","pre (baseline), table row r466",0
same,"Abundance: Family Erysipelotrichaceae, Genus —, Species —","pre (baseline), table row r468",4
same,"Abundance: Family Other, Genus Other, Species Other","pre (baseline), table row r469",0
same,"Abundance: Family Clostridiaceae, Genus Clostridium, Species Other","pre (baseline), table row r470",0
same,"Abundance: Family Ruminococcaceae, Genus —, Species —","pre (baseline), table row r473",3
same,"Abundance: Family Deferribacteraceae, Genus Mucispirillum, Species schaedleri","pre (baseline), table row r474",0
same,"Abundance: Family Turicibacteraceae, Genus Turicibacter, Species —","pre (baseline), table row r475",0
same,"Abundance: Family [Mogibacteriaceae], Genus —, Species —","pre (baseline), table row r478",0
same,"Abundance: Family Lachnospiraceae, Genus Dorea, Species longicateria","pre (baseline), table row r480",2
same,"Abundance: Family Ruminococcaceae, Genus —, Species —","pre (baseline), table row r481",0
same,"Abundance: Family Lachnospiraceae, Genus —, Species —","pre (baseline), table row r482",0
same,Abundance Erysipelotrichaceae/Allobaculum/—,"pre, line r8",6375
same,Abundance Turicibacteraceae/Turicibacter/—,"pre, line r9",9408
same,Abundance Desulfovibrionaceae/—/—,"pre, line r10",3882
same,Abundance Clostridiaceae/Other/Other,"pre, line r11",7143
same,Abundance Lactobacillaceae/Lactobacillus/—,"pre, line r12",416
same,Abundance Streptococcaceae/Lactococeus/—,"pre, line r13",2239
same,Abundance Bacteroidaceae/Bacteroides/—,"pre, line r14",1596
same,Abundance [Paraprevotellaceae]/[Prevotella]/—,"pre, line r15",1674
same,Abundance —/—/—,"pre, line r16",1552
same,Abundance Deferribacteraceae/Mucispirillum/schaedleri,"pre, line r17",4795
same,Abundance Bacteroidaceae/Bacteroides/acidifaciens,"pre, line r18",983
same,Abundance —/—/—,"pre, line r19",853
same,Abundance Verrucomicrobiaceae/Akkermansia/muciniphila,"pre, line r20",2305
same,Abundance Rikenellaceae/—/—,"pre, line r21",696
same,Abundance Enterobacteriaceae/Other/Other,"pre, line r22",17
same,Abundance Lactobacillaceae/Lactobacillus/—,"pre, line r23",883
same,Abundance S24-7/—/—,"pre, line r24",623
same,Abundance Lachnospiraceae/—/—,"pre, line r25",752
same,Abundance Peptostreptocpccaceae/—/—,"pre, line r26",1121
same,Abundance Lachnospiraceae/[Ruminococcus]/gnavus,"pre, line r27",2041
same,Abundance Lachnospiraceae/Coprococeus/—,"pre, line r28",444
same,Abundance Bifidobacteriaceae/Bifidobacterium/pseudolongum,"pre, line r29",1317
same,Abundance Enterobacteriaceae/Proteus/—,"pre, line r30",0
same,Abundance Lactobacillaceae/Lactobacillus/Other,"pre, line r31",64
same,Abundance S24-7/—/—,"pre, line r32",740
same,Abundance Porphyromonadaceae/Parabacteroides/distasonis,"pre, line r33",320
same,Abundance Clostridiaceae/—/—,"pre, line r34",1242
same,Abundance —/—/—,"pre, line r35",420
same,Abundance Desulfovibrionaceae/Desulfovibrio/—,"pre, line r36",65
same,Abundance S24-7/—/—,"pre, line r37",708
same,Abundance Coriobacteriaceae/Adlercreutzia/—,"pre, line r38",625
same,Abundance S24-7/—/—,"pre, line r39",480
same,Abundance Erysipelotrichaceae/Clostridium/cocleatum,"pre, line r40",319
same,Abundance Ruminococcaceae/Ruminococcus/—,"pre, line r41",1164
same,Abundance Lachnospiraceae/Other/Other,"pre, line r43",481
same,Abundance Lachnospiraceae/[Ruminococcus]/gnavus,"pre, line r44",311
same,Abundance Turicibacteraceae/Turicibacter/—,"pre, line r45",586
same,Abundance Lachnospiraceae/—/—,"pre, line r46",611
same,Abundance Bacteroidaceae/Bacteroides/—,"pre, line r47",460
same,Abundance Ruminococcaceae/Oscillospira/—,"pre, line r48",293
same,Abundance Lachnospiraceae/Roseburia/—,"pre, line r50",488
same,Abundance Lachnospiraceae/—/—,"pre, line r51",338
same,Abundance S24-7/—/—,"pre, line r52",305
same,Abundance Lachnospiraceae/[Ruminococcus]/gnavus,"pre, line r53",123
same,Abundance Lachnospiraceae/Coprococcus/—,"pre, line r56",126
same,Abundance S24-7/—/—,"pre, line r57",322
same,Abundance S24-7/—/—,"pre, line r58",237
same,Abundance Lachnospiraceae/Other/Other,"pre, line r60",562
same,Abundance Lachnospiraceae/[Ruminococcus]/gnavus,"pre, line r61",375
same,Abundance Erysipelotrichaceae/Allobaculum/—,"pre, line r62",286
same,Abundance Desulfovibrionaceae/Desulfovibrio/C21_c20,"pre, line r63",604
same,Abundance S24-7/—/—,"pre, line r64",383
same,Abundance Streptococcaceae/Lactococcus/garvieae,"pre, line r66",11
same,Abundance Enterobacteriaceae/Proteus/—,"pre, line r68",0
same,Abundance Lachnospiraceae/—/—,"pre, line r69",44
same,Abundance S24-7/—/—,"pre, line r70",399
same,Abundance Lachnospiraceae/[Ruminococcus]/gnavus,"pre, line r71",278
same,Abundance Clostridiaceae/Clostridium/Other,"pre, line r73",707
same,Abundance Lachnospiraceae/—/—,"pre, line r74",0
same,Abundance Clostridiaceae/Other/Other,"pre, line r75",215
same,Abundance Clostridiaceae/Other/Other,"pre, line r77",255
same,Abundance S24-7/—/—,"pre, line r78",196
same,Abundance Lachnospiraceae/[Ruminococcus]/gnavus,"pre, line r79",601
same,Abundance Bacteroidaceae/Bacteroides/—,"pre, line r80",170
